The results in this text go back to patent US8008542B2, “Compositions, cells, and plants that include BKI1, a negative regulator of BRI1-mediated BR signaling” (The Salk Institute for Biological Studies, priority 2007, dated 2011).

For experiment [1], the system named is DWF4. The experiment in a line: qRT-PCR of brassinosteroid-regulated gene DWF4. It is filed as in vivo, Arabidopsis. The following applies: 100 nM BL for 2.5 hrs. The procedure: (§1) Plants were treated with 100 nM BL, or a mock treatment for 2.5 hrs. Total RNA was extracted using a Qiagen RNAeasy kit (Valencia, Calif.), and the first strand cDNA was synthesized using Invitrogen Superscript III First-Strand cDNA Synthesis kit. cDNAs were combined with SYBR master mix for PCR. Primers for each gene are shown as follows. CPD (At5g05690): 5′-TTACCGCAAAGCCATCCAA-3′ (SEQ ID NO:10) and 5′-[…]-3′ (SEQ ID NO:11); DWF4 (At3g50660): 5′-[…]-3′ (SEQ ID NO:12) and 5′-[…]-3′ (SEQ ID NO:13); Saur-AC1 (At4g38850): 5′-[…]-3′ (SEQ ID NO:14) and 5′-[…]-3′ (SEQ ID NO:15); and BKI1: 5′-GCTCCGGCGTCGATGA-3′ (SEQ ID NO:16) and 5′-[…]-3′ (SEQ ID NO:17). A U-box gene (At5g15400) was used to normalize the data (5′-[…]-3′ (SEQ ID NO:18) and 5′-TGCTGCCCAACATCAGGTT-3′ (SEQ ID NO:19)). PCR reactions were performed in triplicate or quadruplicate with a Bio-Rad iCycler, and the data were collected and analyzed with Bio-Rad MyiQ Single-Color Real-Time PCR Detection System.
A general note: Real-time PCR tracks product formation cycle by cycle.

Experiment [2] has as its system plasma membrane-association of BKI1-YFP. The experiment in a line: Subcellular localization of BKI1-YFP in root tip cells (confocal). Type of experiment: cell-based, Arabidopsis. As to conditions: for plasma membrane-association of BKI1-YFP following BL treatment: wild-type background, grown on 1 μM BRZ220, treated with 1 μM BL. How it is done: To investigate where in the pathway BKI1 acts, we examined the subcellular localization of the BKI1-YFP fusion protein in plants. BKI1-YFP was localized to both the plasma membrane and the cytosol in root tip cells (FIG. 3A). When the BKI1-YFP line was grown on medium containing 1 μM BRZ220, which reduces the levels of endogenous brassinosteroids (22), the fluorescent signal on the cell surface was enhanced (FIG. 3B).
In FIG. 3A, BKI1-YFP is localized to the plasma membrane and cytosol on MS medium. In FIG. 3B, BRZ220 enhances the association of BKI1-YFP to the plasma membrane. Seedlings were grown on MS medium containing 1 μM BRZ220. In FIG. 3C, BL enhances BKI1-YFP dissociation from the plasma membrane. Seedlings were grown on MS medium containing 1 μM BL. […] Seedlings were grown on MS medium containing 1 μM of BRZ220 and treated with 1 μM BL. J-L. BKI1-YFP is associated with the plasma membrane in bri1-116. Seedlings were grown on MS medium containing 1 μM of BRZ220. bri1-116 is a null allele of BRI1 (19). […] Seedlings were grown on MS medium containing 1 μM BL. […] Seedlings were grown on MS medium containing 1 μM BRZ220. 3D, G, J, M, and P are untreated; E, H, K, N, and Q are treated with BL for 5 min, and F, I, L, O, and R are treated with BL for 10 min.
Seedlings were grown on MS medium containing 1 μM of BRZ220. The time of BL treatment is indicated. Top panels: BKI1-YFP; Lower panels: myriBKI1-YFP. […] Immunoblots with anti-GFP show levels of myriBKI1-YFP and BKI1-YFP. Bottom band: loading control. […] The total ^35S-Met labeled BRI1-KD-HIS co-precipitated by GST-BAK1-KD was defined as “1”. Five replicates were conducted. Error bars indicate standard error. 1, GST-BAK1-KD±35S-BRI1-KD-HIS; 2, GST-BAK1-KD+35S-BRI1-KD-HIS+10 μM of MBP; 3, GST-BAK1-KD+35S-BRI1-KD-HIS+10 μM of MBP-BKI1. […] Without BL, BRI1 kinase is kept in a basal state by both its own carboxyl terminal domain and by an interaction with BKI1. Brassinosteroid binding to the extracellular domain of BRI1 induces a conformational change of the kinase domain, leading to the phosphorylation of the C-terminal domain of BRI1 and BKI1, the dissociation of BKI1 from the plasma membrane, and the release of autoinhibition of BRI1. These events lead to the full activation of BRI1 and its association with BAK1 or other substrates. Plasma membrane-dissociated BKI1 may also regulate other unknown components in the brassinosteroid signaling cascade. BSU1 is a nuclear serine/threonine phosphatase involved in the dephosphorylation of BES1 (27).
The predicted full-length BKI1 was amplified by RT-PCR from total RNA of Col-0 using Pfu DNA polymerase (Stratagene), and cloned into the binary vector pCHF3 that contains a 35S promoter (10), three copies of FLAG ([…], SEQ ID NO:8) fused at the Cterminal end, and the RubisCo small subunit (rbcS) terminator. For the YFP fusion construct, full length BKI1 was cloned into a modified pCHF3 containing a 35S promoter and a C-terminal YFP tag. For the myriBKI1-YFP construct, a myristoylation site (MGICMSR, SEQ ID NO:9) was added to the N-terminus of BKI1-YFP via PCR. All constructs were confirmed by sequencing and transformed into Col-0 plants. The subcellular localization of BKI1-YFP and myriBKI1-YFP was visualized and photographed using a Leica TCS SP2 confocal microscope (Leica Microsystems, Germany).

Experiment [3] deals with CPD. The experiment in a line: qRT-PCR of brassinosteroid-regulated gene CPD. The following applies: 100 nM BL for 2.5 hrs. It is filed as in vivo, Arabidopsis. How it is done: as §1
In experiment [4] the test system is BES1. The experiment can be described thus: BES1 phosphorylation status by immunoblot with anti-BES1. It is filed as in vivo, Arabidopsis. The procedure: To determine whether the growth inhibitory effect caused by the over-expression of BKI1-YFP was due to an inhibition of BRI1 signaling, we tested the phosphorylation status of a downstream biochemical marker, BES1 (10), by immunoblot analysis.
Seedlings were grown in short day photoperiods for seven days. At least ten short-day grown seedlings were measured. In FIGS. 2A-B the pBKI1::GUS line was used as a control (control). RNAi-2 and RNAi-7 were two independent RNAi knockdown lines for BKI1. In FIG. 2 C-E, phenotype of plants overexpressing BKI1-FLAG, with Col-0 (left) and a BKI1-FLAG line (right) are shown. 2C. Short-day grown seedlings. 2D. Long-day grown seedlings. 2E. Long-day grown adult plants. In FIG. 2F, leaf morphology of seedlings grown in short days. Col-0 (right) and a BKI1-FLAG line (left) are shown. In FIG. 2G, over-expression of BKI1-YFP leads to a reduced response (hypocotyl length) to BL. At least twenty short-day grown seedlings were measured. In FIG. 2H, over-expression of BKI1-YFP leads to an enhanced response to BRZ220. At least twenty dark-grown seedlings were measured. In FIG. 2I, over-expression of BKI1-YFP results in reduced accumulation of dephosphorylated BES1. Immunoblots with anti-BES1 show levels of phosphorylated BES1 (pBES1) and dephosphorylated BES1. Bottom band: loading control. In FIG. 2J, Over-expression of BKI1-YFP alters the expression of BR-regulated genes. […]
On the technique in general: Immunoblotting shows a protein as a band on a membrane.

For experiment [5], the system named is Saur-AC1. The experiment can be described thus: qRT-PCR of brassinosteroid-regulated gene Saur-AC1. Type of experiment: in vivo, Arabidopsis. As to conditions: Plus BL (100 nM, 2.5 hrs). The procedure: as §1
For experiment [6], the system named is Arabidopsis seedlings. The experiment in a line: Hypocotyl length response to BL, short-day grown seedlings. It is filed as in vivo.
In experiment [7] the target is T1, CLV1 kinase domain (CLV1-KD) fused with GAL4-DB (in pDBLeu) (UniProt P04386 1-147; Q9SYQ8 660-980, limits assumed).
T1 construct: domain: GAL4-DB;domain: kinase domain; Yeast two-hybrid bait
The experiment can be described thus: yeast two-hybrid.

Experiment [8] has as its target full-length BIN2 in pDBLeu (GAL4-DB fusion) (UniProt P04386 1-147; Q39011 1-380). The experiment can be described thus: yeast two-hybrid.
Experiment [9] has as its target T2, kinase domain of NIK1 (NIK1-KD) in pDBLeu (GAL4-DB fusion) (UniProt P04386 1-147; Q9LFS4 270-638, limits assumed).
T2 construct: domain: GAL4-DB;domain: kinase domain; Yeast two-hybrid bait
The experiment can be described thus: yeast two-hybrid.

For experiment [10], the target named is T3, BRL3 kinase domain (BRL3-KD) fused with GAL4-DB (in pDBLeu) (UniProt P04386 1-147; Q9LJF3 794-1164, limits assumed).
T3 construct: domain: GAL4-DB;domain: kinase domain; Yeast two-hybrid bait
The experiment can be described thus: yeast two-hybrid.

For experiment [11], the target named is full length TTL in pDBLeu (GAL4-DB fusion) (Arabidopsis, UniProt P04386 1-147; Q9LVM5 1-324, limits assumed). The experiment in a line: yeast two-hybrid.
The target of experiment [12] is T4, kinase domain of BAK1 (BAK1-KD) in pDBLeu (GAL4-DB fusion) (UniProt P04386 1-147; Q94F62 247-615, limits assumed).
T4 construct: domain: GAL4-DB;domain: kinase domain; Yeast two-hybrid bait
The experiment in a line: yeast two-hybrid.

Experiment [13] concerns the target T5, BRL1 kinase domain (BRL1-KD) fused with GAL4-DB (in pDBLeu) (UniProt P04386 1-147; Q9ZWC8 798-1166, limits assumed).
T5 construct: domain: GAL4-DB;domain: kinase domain; Yeast two-hybrid bait
The experiment in a line: yeast two-hybrid.

Turning to `CC(C)[C@H](C)[C@@H](O)[C@H](O)[C@@H](C)[C@H]1CC[C@H]2[C@@H]3COC(=O)[C@H]4C[C@H](O)[C@H](O)C[C@]4(C)[C@H]3CC[C@]12C` [BL, brassinolide], the entries for the “expression of DWF4 (RNA level, WT without BL = 1.00)” value in experiment [1] (BKI1-YFP line) and in experiment [1] (WT) were 0.80±0.06 and 0.27±0.01, respectively. For the same molecule, the “BL-induced dissociation of BKI1-YFP from the plasma membrane” value is “no BL-induced dissociation” in [2] (bri1-104 (kinase inactive allele)) and “failed to induce the dissociation” in experiment [2] (bri1-116 homozygous seedlings (null allele)). In [2] (grown on medium containing 1 μM BL), the “plasma membrane-association of BKI1-YFP” value is given as “reduced”. The “plasma membrane-association of BKI1-YFP following BL treatment” value is “undetectable” in experiment [2] (10 minutes) and “almost completely gone” in [2] (after 5 minutes). In addition, the “expression of CPD (RNA level, WT without BL = 1.00)” value in [3] (BKI1-YFP line) amounted to 0.83±0.05; in experiment [3] (WT), 0.47±0.03. The “accumulation of dephosphorylated BES1” value in experiment [4] (det2-1, 0.1 μM BL for one hour) is on record as “strongly stimulated”; in experiment [4] (wild type, 0.1 μM BL for one hour), “strongly stimulated”. The “expression of Saur-AC1 (RNA level, WT without BL = 1.00)” value in experiment [5] (BKI1-YFP line) came out at 1.65±0.11; in experiment [5] (WT), 4.68±0.31. Also, the “response to BL treatment (hypocotyl length)” value in experiment [6] (det2-1 brassinosteroid biosynthetic mutant) was “highly responsive”. The “sensitivity to BL applications compared to wild type (fold less sensitive)” value in experiment [6] (plants over-expressing BKI1-YFP, hypocotyl length) is “at least 100 fold”.

B1: BKI1 fused with GAL4-AD (BKI1-pEXAD502), full-length BKI1 (other, not shown: large carriers)
chain: METNLQQVKNSSQTFSEKQNPKQEASPSPISSTCSSPSHDFSFTISLQPLSSSSKHISPTLRSPSKTTSSYQQTDPFAVDLSPADEIFFHGHLLPLHLLSHLPVSPRTSTGSYNDGFTLPVKDILPDQPTNNNNNTENAITNISTEAKDDNTEDKAEGEIRVKTKPIKSFSLFGLSKWRKGFESNEREQEQQQQKIKKPMSLDLSHAVKKYIRMLFQKRGNGTQFWNRRQTSSYSFSSSLMGPNGNSKTMINGSYNKRDLIRGRRGELFSAPASMRTSPTNSGHLRVSTAGLSSSSGSTSSSSSDSTMEELQAAIQAAIAHCKNSSAVDRDDKVKDS
notes: Yeast two-hybrid prey; it is put N-terminal here; also called BKI1-FL; At5g42750
As to B1, the binding result in [7], in [8], in [9], in experiment [10], in experiment [11] and in [12] was “no binding” each time. Besides, the binding result in experiment [13] is “no binding”.
